From ChEMBL document CHEMBL4033720, “Discovery of novel cyclic peptide inhibitors of dengue virus NS2B-NS3 protease with antiviral activity” (Bioorg Med Chem Lett, 2017)
Where a SMILES comes first, the peptide text is derived from it.

Legend:
[1] = Toxicity in BHK21 cells assessed a reduction in cell viability after 4 days by resazurin dye based method; design: species or system Mesocricetus auratus, BHK-21; conditions: hamster
[2] = test system: dengue virus type 2; test: Antiviral activity against dengue virus 2 infected in BHK21 cells assessed as inhibition of virus-induced cytopathic effect after 4 days by resazurin dye based method; assay type: functional, cell-based
[3] = Inhibition of dengue virus 2 NS2B-NS3 protease pre-incubated for 10 mins before Boc-Gly-Arg-Arg-peptidyl-4-methylcoumaryl-7-amide substrate addition and measured after 2 hrs by fluorescence based assay; design: species or system dengue virus type 2
[4] = Stability assessed as dengue virus 2 NS2B-NS3 protease-mediated compound degradation at 200 uM in presence of […] incubated for 0 to 22.5 hrs by LC-MS method; assay type: ADME; conditions: dengue virus type 2, 200 µM
[5] = Stability assessed as dengue virus 2 NS2B-NS3 protease-mediated compound degradation by measuring linear peptide with P1 C-terminus and P' N-terminus at 200 uM in presence of […] incubated for 0 to 22.5 hrs by LC-MS method; assay type: ADME; conditions: dengue virus type 2, 200 µM
[6] = Selectivity index, ratio of CC50 for toxicity in BHK21 cells to EC50 for antiviral activity against dengue virus 2 infected in BHK21 cells; assay type: cell-based; conditions: hamster, read-out: Ratio CC50/EC50
[7] = Dengue virus, BHK-21, 96 h, read-out: EC50

SMILES	IC50 [3] [µM]	other results
N=C(N)NCCC[C@@H]1NC(=O)[C@H](CCCNC(=N)N)NC(=O)[C@H]2CCCN2C(=O)[C@@H](Cc2ccccc2)NC(=O)[C@H](CO)NC(=O)[C@H](Cc2ccc(-c3ccccc3)cc2)NC(=O)[C@H](CO)NC(=O)[C@H](CCCCN)NC1=O	3.8	CC50 at 96 h [1]: > 400 µM; EC50 [2, 7]: 108 µM
N=C(N)NCCC[C@@H]1NC(=O)[C@H](CCCCN)NC(=O)CNC(=O)[C@@H](Cc2ccccc2)NC(=O)[C@H](CO)NC(=O)[C@H](CCc2ccccc2)NC(=O)[C@H](CO)NC(=O)[C@H](CCCCN)NC1=O	5	
C[C@H]1NC(=O)[C@@H](Cc2ccccc2)NC(=O)[C@H](CO)NC(=O)[C@H](CCc2ccccc2)NC(=O)[C@H](CO)NC(=O)[C@H](CCCCN)NC(=O)[C@H](CCCNC(=N)N)NC(=O)[C@H](CCCCN)NC1=O	3.3	
C[C@@H]1NC(=O)[C@H](CCc2ccccc2)NC(=O)[C@H](CO)NC(=O)[C@H](CCCCN)NC(=O)[C@H](CCCNC(=N)N)NC(=O)[C@H](CCCCN)NC(=O)CNC(=O)[C@H](c2ccccc2)NC1=O	22.2	
N=C(N)NCCC[C@@H]1NC(=O)[C@H](CCCCN)NC(=O)[C@H]2CCCN2C(=O)[C@@H](Cc2ccccc2)NC(=O)[C@H](CO)NC(=O)[C@H](Cc2ccc3ccccc3c2)NC(=O)[C@H](CO)NC(=O)[C@H](CCCCN)NC1=O	2.6	CC50 at 96 h [1]: > 400 µM; EC50 [2, 7]: 306 µM
C[C@@H]1NC(=O)[C@H](CCc2ccccc2)NC(=O)[C@H](CO)NC(=O)[C@H](CCCCN)NC(=O)[C@H](CCCNC(=N)N)NC(=O)[C@H](CCCCN)NC(=O)CNC(=O)[C@@H](c2ccccc2)NC1=O	15.1	
C[C@@H]1NC(=O)[C@H](CS)NC(=O)[C@@H](CCc2ccccc2)NC(=O)[C@H](CO)NC(=O)[C@H](CCCCN)NC(=O)[C@H](CCCNC(=N)N)NC(=O)[C@H](CCCCN)NC(=O)CNC1=O	38.7	
C[C@@H]1NC(=O)[C@H](CCc2ccccc2)NC(=O)[C@H](CO)NC(=O)[C@H](CCCCN)NC(=O)[C@H](CCCNC(=N)N)NC(=O)[C@H](CCCCN)NC(=O)CNC(=O)[C@@H](Cc2ccccc2)NC1=O	7.6	
N=C(N)NCCC[C@@H]1NC(=O)[C@H](CCCCN)NC(=O)[C@@H]2CCCN2C(=O)[C@@H](Cc2ccccc2)NC(=O)[C@H](CO)NC(=O)[C@H](CCc2ccccc2)NC(=O)[C@H](CO)NC(=O)[C@H](CCCCN)NC1=O	52	
N=C(N)NCCC[C@@H]1NC(=O)[C@H](CCCNC(=N)N)NC(=O)[C@@H](CCCNC(=N)N)NC(=O)[C@@H](Cc2ccccc2)NC(=O)[C@H](Cc2cccc3ccccc23)NC(=O)[C@H](CCc2ccccc2)NC(=O)[C@H](CO)NC(=O)[C@H](CCCCN)NC1=O	1.6	CC50 at 96 h [1]: 233 µM; Stability [4]: Unstable; EC50 [2, 7]: 23.2 µM; Drug metabolism [5]: Metabolite_Detected
N=C(N)NCCC[C@@H]1NC(=O)[C@H](CCCNC(=N)N)NC(=O)[C@@H](CCCNC(=N)N)NC(=O)[C@@H](Cc2ccc3ccccc3c2)NC(=O)[C@H](Cc2ccccc2)NC(=O)[C@H](CCc2ccccc2)NC(=O)[C@@H](Cc2ccccc2)NC(=O)[C@H](CCCCN)NC1=O	1.7	CC50 at 96 h [1]: 86 µM; EC50 [2, 7]: 4.6 µM
C[C@@H]1NC(=O)[C@@H](Cc2ccccc2)NC(=O)[C@H](CO)NC(=O)[C@H](CCc2ccccc2)NC(=O)[C@H](CO)NC(=O)[C@H](CCCCN)NC(=O)[C@H](CCCNC(=N)N)NC(=O)[C@H](CCCCN)NC1=O	28.5	
N=C(N)NCCC[C@@H]1NC(=O)[C@H](CCCNC(=N)N)NC(=O)[C@@H](CCCNC(=N)N)NC(=O)[C@@H](Cc2ccccc2)NC(=O)[C@H](CO)NC(=O)[C@H](Cc2ccc(-c3ccccc3)cc2)NC(=O)[C@H](CO)NC(=O)[C@H](CCCCN)NC1=O	3.7	CC50 at 96 h [1]: > 400 µM; EC50 [2, 7]: 87.5 µM
C[C@@H]1NC(=O)[C@H](CCc2ccccc2)NC(=O)[C@H](CO)NC(=O)[C@H](CCCCN)NC(=O)[C@H](CCCNC(=N)N)NC(=O)[C@H](CCCCN)NC(=O)CNC(=O)[C@@H](CCc2ccccc2)NC1=O	16.2	
N=C(N)NCCC[C@@H]1NC(=O)[C@H](CCCNC(=N)N)NC(=O)[C@@H](CCCNC(=N)N)NC(=O)[C@@H](Cc2ccccc2)NC(=O)[C@H](Cc2ccc3ccccc3c2)NC(=O)[C@H](CCc2ccccc2)NC(=O)[C@H](CO)NC(=O)[C@H](CCCCN)NC1=O	1.5	CC50 at 96 h [1]: 210 µM; EC50 [2, 7]: 48.5 µM
N=C(N)NCCC[C@@H]1NC(=O)[C@H](CCCCN)NC(=O)[C@H]2CCCN2C(=O)[C@@H](Cc2ccccc2)NC(=O)[C@H](CO)NC(=O)[C@H](Cc2ccc(-c3ccccc3)cc2)NC(=O)[C@H](CO)NC(=O)[C@H](CCCCN)NC1=O	3.8	CC50 at 96 h [1]: > 400 µM; EC50 [2, 7]: 293 µM

SMILES	IC50 [3] [µM]	other results
C[C@@H]1NC(=O)[C@H](CCc2ccccc2)NC(=O)[C@H](CO)NC(=O)[C@H](CCCCN)NC(=O)[C@H](CCCNC(=N)N)NC(=O)[C@H](CCCCN)NC(=O)CNC(=O)[C@H](CCc2ccccc2)NC1=O	25.6	
N=C(N)NCCC[C@@H]1NC(=O)[C@H](CCCNC(=N)N)NC(=O)[C@@H](CCCNC(=N)N)NC(=O)[C@@H](CCCNC(=N)N)NC(=O)[C@H](CO)NC(=O)[C@H](Cc2ccc(-c3ccccc3)cc2)NC(=O)[C@H](CO)NC(=O)[C@H](CCCCN)NC1=O	2.3	CC50 at 96 h [1]: > 400 µM; EC50 [2, 7]: 141 µM
N=C(N)NCCC[C@@H]1NC(=O)[C@H](CCCNC(=N)N)NC(=O)[C@@H](CCCNC(=N)N)NC(=O)[C@@H](Cc2ccc3ccccc3c2)NC(=O)[C@H](Cc2ccccc2)NC(=O)[C@H](CCc2ccccc2)NC(=O)[C@@H](Cc2ccc3ccccc3c2)NC(=O)[C@H](CCCCN)NC1=O	1.1	CC50 at 96 h [1]: 24 µM; selectivity ratio [6]: > 10; EC50 [2, 7]: 2 µM
C[C@@H]1NC(=O)[C@H](CS)NC(=O)[C@H](CCc2ccccc2)NC(=O)[C@H](CO)NC(=O)[C@H](CCCCN)NC(=O)[C@H](CCCNC(=N)N)NC(=O)[C@H](CCCCN)NC(=O)CNC1=O	9.2	
N=C(N)NCCC[C@@H]1NC(=O)[C@H](CCCCN)NC(=O)[C@H]2CCCN2C(=O)[C@@H](Cc2ccccc2)NC(=O)[C@H](CO)NC(=O)[C@H](CCc2ccccc2)NC(=O)[C@H](CO)NC(=O)[C@H](CCCCN)NC1=O	0.95	Stability [4]: Unstable; EC50 [2]: Not Active
C[C@@H]1NC(=O)[C@H](CCc2ccccc2)NC(=O)[C@H](CO)NC(=O)[C@H](CCCCN)NC(=O)[C@H](CCCNC(=N)N)NC(=O)[C@H](CCCCN)NC(=O)CNC(=O)[C@H](Cc2ccccc2)NC1=O	19.8	
C[C@@H]1NC(=O)CNC(=O)[C@H](CO)NC(=O)[C@H](CCCCN)NC(=O)[C@H](CCCNC(=N)N)NC(=O)[C@H](CCCCN)NC(=O)CNC(=O)[C@H](C)NC1=O (HELM PEPTIDE1{A.A.G.K.R.K.S.G}$PEPTIDE1,PEPTIDE1,1:R1-8:R2$$$V2.0)	57.4	
C[C@@H]1NC(=O)[C@H](C)NC(=O)[C@H](CCc2ccccc2)NC(=O)[C@H](CO)NC(=O)[C@H](CCCCN)NC(=O)[C@H](CCCNC(=N)N)NC(=O)[C@H](CCCCN)NC(=O)CNC1=O (HELM PEPTIDE1{A.A.G.K.R.K.S.[O=C([C@H](CCc1ccccc1)N[*:1])[*:2]]}$PEPTIDE1,PEPTIDE1,1:R1-8:R2$$$V2.0)	18.4	
C[C@@H]1NC(=O)CNC(=O)[C@H](C)NC(=O)[C@H](CS)NC(=O)CNC(=O)[C@H](CO)NC(=O)[C@H](CCCCN)NC(=O)[C@H](CCCNC(=N)N)NC1=O (HELM PEPTIDE1{A.G.A.R.K.S.G.C}$PEPTIDE1,PEPTIDE1,1:R1-8:R2$$$V2.0)	> 200	
C[C@@H]1NC(=O)[C@H](CS)NC(=O)CNC(=O)[C@H](C)NC(=O)[C@H](CCCCN)NC(=O)[C@H](CCCNC(=N)N)NC(=O)[C@H](CCCCN)NC(=O)CNC1=O (HELM PEPTIDE1{A.G.C.A.G.K.R.K}$PEPTIDE1,PEPTIDE1,1:R1-8:R2$$$V2.0)	> 200	
C[C@@H]1NC(=O)[C@H](CS)NC(=O)CNC(=O)[C@H](CO)NC(=O)[C@H](CCCCN)NC(=O)[C@H](C)NC(=O)[C@H](CCCCN)NC(=O)CNC1=O (HELM PEPTIDE1{A.G.K.A.K.S.G.C}$PEPTIDE1,PEPTIDE1,1:R1-8:R2$$$V2.0)	> 200	
C[C@@H]1NC(=O)[C@H](CS)NC(=O)CNC(=O)[C@H](CO)NC(=O)[C@H](C)NC(=O)[C@H](CCCNC(=N)N)NC(=O)[C@H](CCCCN)NC(=O)CNC1=O (HELM PEPTIDE1{A.G.K.R.A.S.G.C}$PEPTIDE1,PEPTIDE1,1:R1-8:R2$$$V2.0)	> 200	
C[C@@H]1NC(=O)[C@H](CS)NC(=O)[C@H](Cc2ccccc2)NC(=O)[C@H](CO)NC(=O)[C@H](CCCCN)NC(=O)[C@H](CCCNC(=N)N)NC(=O)[C@H](CCCCN)NC(=O)CNC1=O (HELM PEPTIDE1{A.G.K.R.K.S.F.C}$PEPTIDE1,PEPTIDE1,1:R1-8:R2$$$V2.0)	39.3	
C[C@@H]1NC(=O)[C@H](CS)NC(=O)CNC(=O)[C@H](CO)NC(=O)[C@H](CCCCN)NC(=O)[C@H](CCCNC(=N)N)NC(=O)[C@H](CCCCN)NC(=O)CNC1=O (HELM PEPTIDE1{A.G.K.R.K.S.G.C}$PEPTIDE1,PEPTIDE1,1:R1-8:R2$$$V2.0)	114	
C[C@@H]1NC(=O)[C@H](CS)NC(=O)[C@H](c2ccccc2)NC(=O)[C@H](CO)NC(=O)[C@H](CCCCN)NC(=O)[C@H](CCCNC(=N)N)NC(=O)[C@H](CCCCN)NC(=O)CNC1=O (HELM PEPTIDE1{A.G.K.R.K.S.[Phg].C}$PEPTIDE1,PEPTIDE1,1:R1-8:R2$$$V2.0)	22.1	
